Test results taken from PubChem BioAssay (NCI).
Where “and” joins values, the source holds several entries; their conditions need not be identical. Identical values can stand only once.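 Protocol summary: plate cells (96-well), add compound at 5 concentrations, incubate 48 h, interpolate endpoints linearly. At the GI50, growth is halved. TGI denotes the concentration required for complete inhibition of growth.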

Columns and labels:
Test in all cases: NCI anticancer screen, dose series, 48 h
[1] = system: DU-145 prostate
[2] = system: HOP-62 NSCLC
[3] = system: COLO 205 colon
[4] = system: SK-MEL-28 melanoma
[5] = system: OVCAR-5 ovarian
[6] = system: SF-539 CNS
[7] = system: HCT-116 colon
[8] = system: TK-10 renal
[9] = system: SW-620 colon
[10] = system: SK-OV-3 ovarian

Compound	TGI [1]	TGI [2]	TGI [3] [µM]	TGI [4]	TGI [5]	TGI [6] [µM]	TGI [7] [µM]	TGI [8] [µM]	TGI [9] [µM]	TGI [10]	GI50 [3] [µM]	GI50 [4] [µM]
CCCn1cnc2c(NN=O)ncnc21	> 100 µM	> 100 µM	> 100	> 100 µM	> 100 µM	> 100	> 100	> 100	> 100			
CCOC(=O)CCC(C(=O)OCC)n1nc2ccc(Nc3c(C)[n+]([O-])c4cc(Cl)ccc4[n+]3[O-])cc2n1 (stereo unspecified)	> 100 µM	> 100 µM	> 100		> 100 µM	> 100	> 100	> 100	> 100	> 100 µM		
Cc1cc2c(c3oc(C(O)(CO)C4CO4)cc(=O)c13)C(=O)c1c(O)cccc1C2=O (stereo unspecified)	0.00249 µM and 0.00108 µM	0.00989 µM and 0.00353 µM	0.00115	0.0095 µM and 0.00824 µM and 0.0382 µM	0.00791 µM and 0.00328 µM and 0.0041 µM	0.000212				0.00671 µM and 0.00173 µM	0.0001	0.00375
NC1CC2C3CCC2C1C3=O (stereo unspecified)	> 100 µM	> 100 µM	> 100	> 100 µM	> 100 µM	> 100	> 100	> 100	> 100	> 100 µM		
COC(=O)C(NC(=O)CNC(=O)CSc1nnc(COc2ccc(Cl)cc2)n1-c1ccccc1)C(C)C (stereo unspecified)	35.2 µM	92 µM	34.1	31.1 µM	40.1 µM	31.9	31.4	34.3	38.2			
CC(C)(C)c1cc(-c2ccc(-c3cc(C(C)(C)C)c(O)c(C(C)(C)C)c3)cc2)cc(C(C)(C)C)c1O	> 100 µM	> 100 µM	> 100	> 100 µM	> 100 µM	> 100	> 100	> 100	> 100	> 100 µM		
O=C1CN(c2ccc(Cl)cc2)C(=O)CN1CCN1CC(=O)N(c2ccc(Cl)cc2)CC1=O	> 100 µM	> 100 µM	> 100	> 100 µM	> 100 µM		> 100	> 100	> 100	> 100 µM		
Cn1c(C(C#N)c2cc(Cl)ncn2)nc2ccccc21 (stereo unspecified)	> 100 µM	> 100 µM	> 100	> 100 µM	> 100 µM	> 100	> 100	> 100	> 100	> 100 µM		
CCOC(OCC)C(CC)[Se]c1ccccc1[N+](=O)[O-] (stereo unspecified)	> 100 µM	> 74.2 µM	8.92	> 100 µM	> 100 µM	5.61	30.2	> 100	> 100	9.44 µM		
COC1(OC)N=C(N)C2(C#N)C(C)CC(=O)N(N(C)C)C12C#N (stereo unspecified)	> 100 µM	> 100 µM	> 100	> 100 µM	> 100 µM	> 100	> 100	> 100	> 100	> 100 µM		
C#CC(O)/C=C/CCCCCCC#CC/C=C\CC#CCCCCCC/C=C/C(O)C#C (stereo unspecified)	8.99 µM	4.72 µM	4.29	4.58 µM	7.86 µM	41.2	4.02	11	7.3	32.1 µM		
COC(=O)C1OC(O[C@H]2CC[C@]3(C)[C@H]4CC=C5[C@@H]6CC(C)(C)CC[C@]6(C(=O)OC)[C@H](O)C[C@@]5(C)[C@]4(C)CC[C@H]3C2(C)C)C(O)C(O)C1O (stereo partly specified)	21.6 µM	31.1 µM	17.5	23.8 µM	26 µM		17		24.9	28.2 µM		
COc1nn(Cc2ccccc2F)c2ccc([N+](=O)[O-])cc12	> 100 µM	> 100 µM	> 100	> 100 µM	> 100 µM	> 100	> 100	> 100	> 100			
N[C@@H]1c2c(Br)sc(Br)c2[C@H](O)[C@@H]1O	> 100 µM		> 100	> 100 µM	> 100 µM	> 100	> 100	> 100	> 100	> 100 µM		
Oc1ccc(-c2nc3cc(C(F)(F)F)ccc3n2CC2CCCN3CCCCC23)cc1 (stereo unspecified)	36.1 µM	26 µM		29.6 µM	67 µM	34.6	29.3	30.5	28.4	27.6 µM		
CC1=C(C2=C(C)C(=O)C(=O)c3cc(C)ccc32)c2ccc(C)cc2C(=O)C1=O	2.84 µM	2.59 µM	0.525		0.45 µM	0.346	1	1.2		3.07 µM		
Cn1c(N2CCCC2)c(C=O)c(=O)n(C)c1=O	> 100 µM	> 100 µM	> 100	> 100 µM	> 100 µM	> 100	> 100	> 100	> 100	> 100 µM		
O=S(=O)(O)CCS	> 100 µM	> 100 µM	> 100	> 100 µM	> 100 µM	> 100	> 100		> 100	> 100 µM		
O=c1c2cc(Br)ccc2oc2nc3n(c(=O)c12)CCCS3	> 100 µM	> 100 µM	> 100	> 100 µM	> 100 µM	> 100	> 100	> 100	> 100			
Cc1nc2c(nc1C)-c1c(c3c(n1Cc1ccccc1)C(=O)CCC3)C(=O)C2=O	88.8 µM	> 100 µM	> 100	4.18 µM	> 100 µM		> 100	38.1		> 100 µM		
COC1=CC(=O)C(O)=C(C[C@@]2(C)[C@@H]3CCC[C@H](COC(=O)CCCCCNC(=O)OC(C)(C)C)[C@@]3(C)CC[C@@H]2C)C1=O	> 10 µM	> 10 µM	> 10	> 10 µM	> 10 µM		> 10	> 10	> 10	> 10 µM		
C/C(Cl)=N\OC(=O)Nc1ccccc1C(F)(F)F	> 100 µM		43.6	42.3 µM	> 100 µM	> 100	> 100	28.8	36.1	> 100 µM		
CCCCCCOc1ccc(NC2=C(Cl)C(=O)c3cccnc3C2=O)cc1	2.9 µM	5.83 µM		5.03 µM	5.01 µM	4.19	2.09	9.49	3.88	> 10 µM		
